Results from patent publication US11696917B2, “Agent enhancing antitumor effect using pyrazolo[3,4-d]pyrimidine compound” (TAIHO PHARMACEUTICAL CO., LTD., priority 2017, dated 2023).

Test system: NCI-N87 (human stomach cancer)
Test: Combination of Compound 1 and other antitumor agents (in vitro), CellTiter-Glo, median effect method
Type: cell-based
Method: The supplier of each reagent, the suppliers of tumor cell lines, the media used, and the numbers of cells to be inoculated are shown in the tables below.
The cells were inoculated at 20 μL/well to a 384-well culture plate (Corning Inc.). The plate inoculated with the cells were cultured in an incubator set to 37° C. and 5% CO2. On the day following inoculation, each of mixed solutions of Compound 1 and each other antitumor agent at varying combinations of concentrations was added to the cells. Specifically, 8 serial dilutions (including (0 nM)) of Compound 1 and 10 serial dilutions (including (0 nM)) of the other antitumor agent were prepared using Leibovitz's L-15 medium containing 10% FBS, or ATCC formulated RPMI-1640 medium containing 10% FBS. Drug solutions in which equal amounts of the respective serial dilutions of the compounds were dispensed were mixed at a ratio of 1:1 to prepare a total of 80 mixed drug solutions including every combination. Each of these mixed drug solutions was added at 5 μL/well (N=4) to the plate, followed by further culture for 3 days under conditions of 37° C. and 5% CO2.
Three days later, CellTiter-Glo™ 2.0 Reagent (Promega Corporation) was added thereto at 25 μL/well, and chemiluminescence was measured using a plate reader (EnSpire® Multimode Plate Reader, PerkinElmer Japan Co., Ltd.).
The enhancement of an effect by combined use of the drugs was evaluated according to a method known in the art (a method described in Trends Pharmacol. Sci., 4, 450-454, 1983 or Pharmacol Rev., 58 (3), 621-81, 2006).
An average value from 4 wells of each combination was calculated from the obtained data, and a cell survival rate normalized against a control supplemented with a medium containing a vehicle was calculated. A Fa (fraction of affect) value was calculated by subtracting the cell survival rate from 1. Median effect analysis software CalcuSyn 2.0 (CalcuSyn, Inc.) for calculation by the median effect method was used in the calculation of CI.
As for the combinations of the concentrations of both the drugs for calculating CI, a Fa value closer to 1 presumably means a concentration range in which one of the drugs had too strong an effect, and a Fa value closer to 0 presumably means a concentration range in which any of the drugs had too weak an effect. Since these concentration ranges were not appropriate for the discussion of a synergistic effect, combinations that satisfied 0.2 S Fa 0.8 were extracted from the combinations of the respective concentrations of Compound 1 and the other antitumor agent on the basis of the calculated Fa value.
An effect of combined use was determined as shown in the table below (Pharmacol Rev., 58 (3), p. 621-81, 2006).

[1] = Compound 1 3.70 nM + FdUrd 333333 nM, ratio 1:90000, NCI-N87
[2] = Compound 1 3.70 nM + Gemcitabine 1.37 nM, ratio 1:0.37, NCI-N87
[3] = Compound 1 3.70 nM + Gemcitabine 4.12 nM, ratio 1:1.1, NCI-N87
[4] = Compound 1 3.70 nM + Gemcitabine 12.3 nM, ratio 1:3.3, NCI-N87
[5] = Compound 1 3.70 nM + Gemcitabine 37.0 nM, ratio 1:10, NCI-N87
[6] = Compound 1 3.70 nM + Gemcitabine 111 nM, ratio 1:30, NCI-N87
[7] = Compound 1 3.70 nM + Gemcitabine 333 nM, ratio 1:90, NCI-N87
[8] = Compound 1 3.70 nM + Paclitaxel 1.85 nM, ratio 1:0.50, NCI-N87
[9] = Compound 1 3.70 nM + Paclitaxel 5.56 nM, ratio 1:1.5, NCI-N87
[10] = Compound 1 3.70 nM + Paclitaxel 16.7 nM, ratio 1:4.5, NCI-N87
[11] = Compound 1 3.70 nM + Trifluridine 12346 nM, ratio 1:3333, NCI-N87
[12] = Compound 1 3.70 nM + Trifluridine 37037 nM, ratio 1:10000, NCI-N87
[13] = Compound 1 3.70 nM + Trifluridine 111111 nM, ratio 1:30000, NCI-N87
[14] = Compound 1 11.1 nM + Cisplatin 687 nM, ratio 1:62, NCI-N87
[15] = Compound 1 11.1 nM + Cisplatin 2062 nM, ratio 1:186, NCI-N87
[16] = Compound 1 11.1 nM + Cisplatin 6185 nM, ratio 1:557, NCI-N87
[17] = Compound 1 11.1 nM + Cisplatin 18556 nM, ratio 1:1670, NCI-N87
[18] = Compound 1 11.1 nM + Cisplatin 55667 nM, ratio 1:5010, NCI-N87
[19] = Compound 1 11.1 nM + FdUrd 4115 nM, ratio 1:370, NCI-N87
[20] = Compound 1 11.1 nM + FdUrd 12346 nM, ratio 1:1111, NCI-N87
[21] = Compound 1 11.1 nM + FdUrd 37037 nM, ratio 1:3333, NCI-N87
[22] = Compound 1 11.1 nM + FdUrd 111111 nM, ratio 1:10000, NCI-N87
[23] = Compound 1 11.1 nM + FdUrd 333333 nM, ratio 1:30000, NCI-N87
[24] = Compound 1 11.1 nM + FdUrd 1000000 nM, ratio 1:90000, NCI-N87
[25] = Compound 1 11.1 nM + Paclitaxel 0.206 nM, ratio 1:0.019, NCI-N87
[26] = Compound 1 11.1 nM + Paclitaxel 0.617 nM, ratio 1:0.056, NCI-N87
[27] = Compound 1 11.1 nM + Paclitaxel 1.85 nM, ratio 1:0.17, NCI-N87
[28] = Compound 1 11.1 nM + Paclitaxel 5.56 nM, ratio 1:0.50, NCI-N87
[29] = Compound 1 11.1 nM + Trifluridine 4115 nM, ratio 1:370, NCI-N87
[30] = Compound 1 11.1 nM + Trifluridine 12346 nM, ratio 1:1111, NCI-N87
[31] = Compound 1 11.1 nM + Trifluridine 37037 nM, ratio 1:3333, NCI-N87
[32] = Compound 1 11.1 nM + Trifluridine 111111 nM, ratio 1:10000, NCI-N87
[33] = Compound 1 33.3 nM + Cisplatin 2062 nM, ratio I:62, NCI-N87
[34] = Compound 1 33.3 nM + FdUrd 12346 nM, ratio 1:370, NCI-N87
[35] = Compound 1 […] + Gemcitabine 4.12 nM, ratio 1:10, NCI-N87
[36] = Compound 1 […] + Gemcitabine 12.3 nM, ratio 1:30, NCI-N87
[37] = Compound 1 […] + Gemcitabine 37.0 nM, ratio 1:90, NCI-N87

## C=CC(=O)N1CCC[C@@H](n2nc(C(=O)Nc3ccc(CC(=O)N(C)C)c(C)c3C)c3c(N)ncnc32)C1 [Compound 1, (R)-1-(1-acryloylpiperidin-3-yl)-4-amino-N-(4-(2-(dimethylamino)-2-oxoethyl)-2,3-dimethylphenyl)-1H-pyrazolo[3,4-d]pyrimidine-3-carboxamide]
[1]
  CI: 0.47
  Fa: 0.62
[2]
  CI: 0.15
  Fa: 0.75
[3]
  CI: 0.12
  Fa: 0.77
[4]
  CI: 0.10
  Fa: 0.80
[5]
  CI: 0.11
  Fa: 0.78
[6]
  CI: 0.11
  Fa: 0.78
[7]
  CI: 0.12
  Fa: 0.77
[8]
  CI: 0.84
  Fa: 0.41
[9]
  CI: 0.42
  Fa: 0.64
[10]
  CI: 0.55
  Fa: 0.71
[11]
  CI: 0.51
  Fa: 0.57
[12]
  CI: 0.51
  Fa: 0.61
[13]
  CI: 0.51
  Fa: 0.67
[14]
  CI: 0.87
  Fa: 0.59
[15]
  CI: 0.71
  Fa: 0.64
[16]
  CI: 0.48
  Fa: 0.74
[17]
  CI: 0.50
  Fa: 0.77
[18]
  CI: 0.90
  Fa: 0.79
[19]
  CI: 0.79
  Fa: 0.61
[20]
  CI: 0.55
  Fa: 0.68
[21]
  CI: 0.58
  Fa: 0.67
[22]
  CI: 0.46
  Fa: 0.73
[23]
  CI: 0.52
  Fa: 0.75
[24]
  CI: 0.31
  Fa: 0.79
[25]
  CI: 0.58
  Fa: 0.69
[26]
  CI: 0.52
  Fa: 0.71
[27]
  CI: 0.61
  Fa: 0.69
[28]
  CI: 0.44
  Fa: 0.78
[29]
  CI: 0.79
  Fa: 0.69
[30]
  CI: 0.51
  Fa: 0.77
[31]
  CI: 0.63
  Fa: 0.74
[32]
  CI: 0.49
  Fa: 0.80
[33]
  CI: 0.73
  Fa: 0.80
[34]
  CI: 0.76
  Fa: 0.80
[35]
  CI: 0.21
  Fa: 0.68
[36]
  CI: 0.23
  Fa: 0.69
[37]
  CI: 0.02
  Fa: 0.71
